Results taken from patent US20240208979A1, “sGC STIMULATORS” (Tisento Therapeutics Inc., priority 2021, published 2024).
pEC50: −log10 of the molar value.

Columns and labels:
human α2β1 sGC isozyme = target: T1, human α2β1 sGC isozyme (Homo sapiens, UniProt P33402+Q02153); experiment: cGMP assay on human α2β1 sGC isozyme stably expressed in CHO-K1 cells; assay type: cell-based; conditions: 10 μM DETA-NONOate, 20 min, cGMP content, geometrical mean
T1 construct: host or cells: CHO-K1
T1 sequence (P33402 1-732): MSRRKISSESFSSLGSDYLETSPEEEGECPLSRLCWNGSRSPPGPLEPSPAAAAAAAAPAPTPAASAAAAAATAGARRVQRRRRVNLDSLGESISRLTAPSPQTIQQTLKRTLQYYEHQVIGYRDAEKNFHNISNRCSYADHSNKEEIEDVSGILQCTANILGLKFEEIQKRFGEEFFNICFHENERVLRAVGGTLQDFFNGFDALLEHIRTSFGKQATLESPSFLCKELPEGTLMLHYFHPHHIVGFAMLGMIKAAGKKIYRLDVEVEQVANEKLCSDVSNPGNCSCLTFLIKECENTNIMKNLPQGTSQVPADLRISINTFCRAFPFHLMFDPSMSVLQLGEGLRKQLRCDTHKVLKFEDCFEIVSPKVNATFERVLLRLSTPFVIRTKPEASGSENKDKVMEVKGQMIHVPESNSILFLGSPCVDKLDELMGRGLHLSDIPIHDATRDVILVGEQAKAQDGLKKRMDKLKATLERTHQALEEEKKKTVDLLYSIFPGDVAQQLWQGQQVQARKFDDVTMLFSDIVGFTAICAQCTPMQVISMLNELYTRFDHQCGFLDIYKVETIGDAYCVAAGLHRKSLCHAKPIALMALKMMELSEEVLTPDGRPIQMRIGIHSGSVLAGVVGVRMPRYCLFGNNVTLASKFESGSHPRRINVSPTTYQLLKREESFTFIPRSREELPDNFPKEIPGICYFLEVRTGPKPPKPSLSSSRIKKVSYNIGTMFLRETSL
T1 sequence (Q02153 1-619): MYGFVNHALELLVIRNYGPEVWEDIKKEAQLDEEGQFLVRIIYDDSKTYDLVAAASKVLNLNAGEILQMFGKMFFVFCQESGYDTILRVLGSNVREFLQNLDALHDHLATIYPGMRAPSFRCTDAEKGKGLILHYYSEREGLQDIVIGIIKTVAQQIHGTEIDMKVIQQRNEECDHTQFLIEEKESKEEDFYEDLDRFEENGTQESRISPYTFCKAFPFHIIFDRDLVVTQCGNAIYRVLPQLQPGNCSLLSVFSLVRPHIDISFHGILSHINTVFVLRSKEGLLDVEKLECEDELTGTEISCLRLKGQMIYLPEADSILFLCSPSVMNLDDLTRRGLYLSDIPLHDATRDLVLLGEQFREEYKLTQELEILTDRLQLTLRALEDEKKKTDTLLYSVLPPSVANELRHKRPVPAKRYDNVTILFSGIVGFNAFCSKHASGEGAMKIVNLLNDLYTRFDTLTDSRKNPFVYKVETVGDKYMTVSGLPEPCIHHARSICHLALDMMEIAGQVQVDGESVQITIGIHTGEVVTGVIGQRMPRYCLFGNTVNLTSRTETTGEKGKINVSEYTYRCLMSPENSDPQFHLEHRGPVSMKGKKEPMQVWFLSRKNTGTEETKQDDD
Experimental: sGC stimulators were dissolved in DMSO as a 10 mM solution and stored at −20° C. To achieve desired test concentrations, stock concentrations were serially diluted into DMSO and then diluted to the appropriate concentration in assay buffer.
CHO-K1 cells stably transfected with human α2β1 sGC isozyme (generated by GenScript for Ironwood) were cultured in F-12K medium (ATCC catalog #30-2004) with 10% fetal calf serum, 4 μg/mL puromycin (Gibco catalog #A11138-03) and 0.4 mg/mL of geneticin (Gibco catalog #10131-027) in a 95% humidified atmosphere containing 5% CO2 in air at 37° C. For GC activity assays, cells were seeded in 384 well poly-D-lysine coated flat bottom plates (Fisher Scientific #08-774-311) in either 50 μL or 70 μL medium at a density of either 3×10^4 cells/well or 15×10^3, respectively. Cells were incubated for 24 hours at 37° C. in a humidified chamber supplemented with 5% CO2. […]
Following incubation with compound, assay buffer was removed and 50 μL of ice-cold 10% acetic acid+150 ng/mL internal standard (+3 cGMP) was added to each well. […] Following centrifugation at 4° C. for 5 min at 1000×g to pellet cell debris, the supernatant was transferred to a clean plate and the samples analyzed for cGMP content.
Data were analyzed with a 4-parameter fit (log(agonist) vs. response—variable slope) using GraphPad Prism Software v.8. […]

normotensive rats = experiment: Blood pressure effects in normotensive rats following acute oral dose; assay type: in vivo, rat; conditions: Milli-Q water
Experimental: Male, normotensive Sprague Dawley rats were purchased from Charles River Laboratories. These rats have indwelling femoral artery catheters installed. Animals were harnessed to a tether system and attached to pressure transducers to monitor cardiovascular (CV) parameters, specifically mean arterial pressure (MAP) and heart rate (HR). Animals were acclimated to the system overnight and baseline CV parameters collected. The conscious, freely moving rats were then administered a single oral dose of the Compound I-14 (doses generated from the sodium salt of Compound 14) in Milli-Q water at 1, 3, 10 and 30 mg/kg. A blood sample was collected from each animal through the catheter line at pre-dose and 2 hours post-dose for compound concentration quantification. Hemodynamic measures were recorded for ten hours post-dose. […]
ADInstruments LabChart (v8) was used to monitor and export hemodynamic data. Blood pressure and heart rate were continuously monitored, and data were collected at 1000 data points per second then averaged into 10-minute bins for analysis. Change from baseline MAP (ΔBMAP) and HR (ΔBHR) were calculated using the pre-dose baseline averaged over the 1-hr period prior to dosing using Microsoft Excel for Microsoft 365. […]
Statistical analyses were performed in Graphpad Prism (v8). […] Vehicle-adjusted HR (ΔVHR) was calculated in a similar manner to ΔVMAP. […]

pEC50 (human α2β1 sGC isozyme): ≥ 7.00
SMILES: Cc1cc(F)c(Cc2nc(-c3ncc(F)c(O)n3)cn3ccnc23)cc1F [Compound I-14, 5-fluoro-2-(8-(2,5-difluoro-4-methylbenzyl)imidazo[1,2-a]pyrazin-6-yl)pyrimidin-4-ol]
effect on MAP from baseline and as adjusted from vehicle (normotensive rats; 3, 10, and 30 mg/kg single oral dose): lowered MAP
change from baseline MAP (ΔBMAP) compared with vehicle-treated rats (normotensive rats; single oral dose 1, 3, 10 and 30 mg/kg, 2-way ANOVA significant): greater decrease in MAP
